Experimental data as given in patent publication US20260216182A1, “PYRIDAZINE NLRP3 INHIBITOR COMPOUND, PHARMACEUTICAL COMPOSITION, AND PREPARATION METHOD THEREFOR AND USE THEREOF” (CHANGCHUN GENESCIENCE PHARMACEUTICAL CO., LTD., priority 2022, published 2026).
Like-named read-outs stand apart in the source and are kept apart here. Marks after values point to notes of the source that are not given here.

What was measured:
[1] = 14-day toxicity experiment on rats: toxicokinetics; format: in vivo, SD rats; details: for Cmax / AUC(0-t): SD, rat, plasma, po; for AUC(0-t): read-out: AUC(0-24)
Experimental: (§1) Test Example 7 14-Day Toxicity Experiment on Rats
(§2) SD rats were orally gavaged with compound 062 and the control compound once a day for a total of 14 times. The toxic reactions caused by compound 062 and the control compound were observed and their toxicokinetics were studied.
(§3) Oral gavage. The drug was stirred for at least 30 min prior to administration and continuously stirred throughout the administration. The dosing frequency was once a day for 14 consecutive days, and the dosing amount was 10 mL/kg (the dosing amount was calculated based on the most recent weight).
Different time points before and after administration on D1 and D14.
Group 2 to Group 7: Before dosing and 0.5 h, 1 h, 2 h, 4 h, 8 h and 24 h after dosing (before dosing on D2 and/or D15).
Whole blood was collected into a blood collection tube containing EDTA-K2, the tube was immediately and gently inverted upside down several times to mix the system thoroughly, and placed on crushed ice/ice pack. Blood was centrifuged (2000 g, 10 min) at 4° C. (set temperature, allowable temperature range: 2 to 8° C.) within 1 h after blood collection. The collected plasma was divided into two portions into separate labeled EP tubes (one for testing and one for standby testing), and stored in an ultra-low temperature refrigerator (−70° C. to −90° C.) within 2 h after collection. The samples were stored in dry ice during transportation and transfer.
The drug concentration in plasma was analyzed by using LC-MS/MS, verified blood drug concentration data was provided, and the main toxicokinetic parameters (AUC0-t, Cmax and Tmax) were calculated and compared.

SD rats = experiment: 14-day toxicity experiment on rats: safety observations; format: in vivo
Text: as §1, §2
An appropriate amount of the test compound was weighed (weighed amount=theoretical required amount/content), and fully ground and dispersed in a mortar (agate or ceramic). Then, an appropriate amount of [5% Solutol HS15 in 95% (0.2% CMC-Na)] was added and the mixture was ground until there were no obvious large particles. Then the mortar was cleaned with [5% Solutol HS15 in 95% (0.2% CMC-Na)] in small amounts several times until there was no drug powder residue observed with the naked eye. The mixture was transferred to a suitable container, well stirred and mixed, and the remaining [5% Solutol HS15 in 95% (0.2% CMC-Na)] was further added to the required volume (streaking method). The system was stirred and mixed for at least 20 min, thereby giving the test sample formulation.
as §3
Dosing period: All surviving animals in the main test group were observed twice a day, once before and after dosing respectively, and observed in detail at least once a week.
Observation contents: The main observation contents include (but not limited to) survival status, injection site, skin, hair, eyes, ears, nose, mouth, chest, abdomen, urogenital area, limbs, as well as breathing, movement, urination, defecation, mental or behavioral changes, etc.
Dosing period: All surviving animals were weighed at least once a week. The body weight of animals in the toxicokinetics (TK) group was only used to calculate the dosage. The body weight data were not statistically analyzed and were only presented as individual data in the summary report.
Dosing period: The food intake of the surviving animals in the main test group was weighed at least once a week, and the average food intake was expressed in g/animal/day.
• End of dosing period: once; • Blood sampling route: abdominal aorta; • Animals: Plan to dissect surviving animals; • Blood was collected into tubes containing anticoagulant (EDTA-K2), and hematological indices were detected using a Sysmex XN-1000V fully automatic blood analyzer; blood was collected into anticoagulant tubes containing sodium citrate, and coagulation indices were detected using a Sysmex CS-5100 coagulometer. The specific detection indices are as follows:
• End of dosing period: once; • Blood sampling route: abdominal aorta; • Animals: Plan to dissect surviving animals; • The animals were fasted overnight, and whole blood was collected into a test tube containing a coagulant and a separation gel. Serum was obtained by centrifugation, and serum biochemical indices were detected using a Hitachi-7180 biochemical analyzer. The specific detection indices are as follows:
• Dissection time: end of dosing period (D15); • Anesthesia method: The specifications of the anesthetic mixture are ketamine of 37.5 mg/mL and xylazine of 2.5 mg/mL. The euthanasia dose is 2-4 mL/kg of the mixture (the anesthetic dose of the animal planned for dissection is calculated based on the body weight after fasting overnight, the concentration will be recorded in the original record and presented in the summary report, and the dose can be adjusted according to the anesthetic effect) by intraperitoneal injection. […]

mouse NASH model = experiment: Mouse NASH model test (HFD + fructose), combination with semaglutide; format: in vivo, mice
Experimental: Test Example 6 Mouse NASH Model Test
After the animals arrived and acclimatized for 1 week, they were randomly divided into 2 groups. 48 mice were fed a high-fat diet (HFD) and had free access to 15% fructose water (w/w). After the animals were fed for 20 weeks, they were fasted for 6 h, and fasting blood glucose (FBG) was monitored by a blood glucose meter. Orbital blood was taken from all animals, and serum was collected by centrifugation to detect serum ALT levels. Animals were randomly divided into 6 groups according to their body weight, FBG and ALT levels. After that, the high fat feed (HFD) was replaced with the modified high fat feed (mHFD), and the mice had free access to 15% fructose water (v/w). The 8 mice in the other group were fed normal diet and water.
The first end point of the experiment: After 8 weeks of administration, the end point body weight was recorded and the animals were fasted for 6 h, and fasting blood glucose was measured with a blood glucose meter. The mice were then euthanized by CO2 and serum was collected by orbital blood sampling and stored at −80° C. for insulin and biochemical analysis. The animal's liver was taken and the liver weight was recorded. The liver was divided into four parts, one part was quick-frozen in liquid nitrogen for biochemical analysis, one part was placed in tissue fixative for pathological analysis, one part was stored in RNAlater for qPCR detection (backup for later use), and one part was quick-frozen in liquid nitrogen for possible subsequent detection.
The second end point of the experiment: 3 mice were kept in each group for 6 weeks for further observation. The end point body weight was recorded and the mice were fasted for 6 h. Fasting blood glucose was tested with a blood glucose meter. The mice were then euthanized by CO2 and serum was collected by orbital blood sampling and stored at −80° C. for insulin and biochemical analysis. The animal's liver was taken and the liver weight was recorded. The liver was divided into four parts, one part was quick-frozen in liquid nitrogen for biochemical analysis, one part was placed in tissue fixative for pathological analysis, one part was stored in RNAlater for qPCR detection (backup for later use), and one part was quick-frozen in liquid nitrogen for subsequent detection.

[2] = 30 mg/kg, 30 mpk oral, Day 1, plasma
[3] = 30 mg/kg, 30 mpk oral, Day 14, plasma
[4] = 60 mg/kg, 60 mpk oral, Day 1, plasma
[5] = 60 mg/kg, 60 mpk oral, Day 14, plasma
[6] = 100 mg/kg, 100 mpk oral, Day 1, plasma
[7] = 100 mg/kg, 100 mpk oral, Day 14, plasma

For `CC#Cc1ccc2c(-c3ccc(Cl)cc3O)nnc(NC[C@H](O)CO)c2c1` [Compound 062, (S)-3-((4-(4-chloro-2-hydroxyphenyl)-7-(prop-1-yn-1-yl)phthalazin-1-yl)amino) propan-1,2-diol], the “exposure in the high-dose group relative to the control compound” value ([1]; 100 mg/kg high-dose group) was 4.8 times, the Cmax [1, 2] was 19900 ng/mL and the AUC(0-t) [1, 2] was 279 µg·h/mL. It also gave a Cmax [1, 3] of 31700 ng/mL, an AUC(0-t) [1, 3] of 384 µg·h/mL and a Cmax [1, 4] of 41100 ng/mL. The AUC(0-t) [1, 4] was 622 µg·h/mL, the Cmax [1, 5] was 68600 ng/mL and the AUC(0-t) [1, 5] was 1120 µg·h/mL. It also gave a Cmax [1, 6] of 68200 ng/mL, an AUC(0-t) [1, 6] of 1120 µg·h/mL and a Cmax [1, 7] of 127000 ng/mL. The AUC(0-t) [1, 7] was 2120 µg·h/mL, the “safety (conclusion in words)” value (SD rats; 14-day rat study) was “good safety” and the Death/moribundity (SD rats; 30, 60, 100 mg/kg/day oral, 14 days) was “None”. The “safety compared with the control compound” value (SD rats; exposure in high-dose group 4.8 times that of control compound) was “much better than that of the control compound”, the “rebound of mouse body weight after drug withdrawal” value (mouse NASH model; combination with 0.025 mpk semaglutide, FIG. 5) was “significantly inhibited the rebound of mouse body weight after drug withdrawal” and the food intake (mouse NASH model; combination with 0.025 mpk semaglutide, FIG. 6) was “without affecting food intake”. The “levels of ALT, AST, LDL and HDL after drug withdrawal” value (mouse NASH model; serum, combination with 0.025 mpk semaglutide, FIG. 7) was “significantly inhibited the levels of ALT, AST, LDL and HDL after drug withdrawal”.
Molecule `CC(C)(O)CNc1nnc(-c2ccc(Cl)cc2O)c2ccncc12` [Control compound] has a Cmax [1, 2] of 17500 ng/mL, an AUC(0-t) [1, 2] of 248 µg·h/mL and a Cmax [1, 3] of 13200 ng/mL. It also gave an AUC(0-t) [1, 3] of 202 µg·h/mL, a Cmax [1, 4] of 21400 ng/mL and an AUC(0-t) [1, 4] of 360 µg·h/mL. The Cmax [1, 5] was 22400 ng/mL, the AUC(0-t) [1, 5] was 324 µg·h/mL and the Cmax [1, 6] was 24000 ng/mL. For the same molecule, the AUC(0-t) [1, 6] was 405 µg·h/mL, the Cmax [1, 7] was 26700 ng/mL and the AUC(0-t) [1, 7] was 439 µg·h/mL. The “animals with swelling of the left and right hind limbs and ears, females” value (SD rats; 30 mg/kg) was 2/5, the “animals with swelling of the left and right hind limbs and ears, males” value (SD rats; 30 mg/kg) was 4/5 and the “Gross anatomy, animals with unplanned autopsy (dead animals)” value (SD rats; 100 mg/kg) was “showed discoloration of the lungs and/or liver”. For the same molecule, the “weight loss before death vs before dosing, animal 4006#” value (SD rats; 100 mg/kg, male, TK group, found dead D 6) was “weight loss (vs before dosing: ↓28.4%)”, the “body weight decrease before death vs before dosing, animal 4101#” value (SD rats; 100 mg/kg, male, found dead D 4) was “↓6.25%); before death, animal 4006# showed” and the “body weight reduction vs. control group” value (SD rats; D 7, high (100 mg/kg)) was 22.5%. For the same molecule, the “body weight reduction vs. control group” value (SD rats; D 7, low (30 mg/kg)) was 7.7%, the “body weight reduction vs. control group” value (SD rats; D 7, medium (60 mg/kg)) was 16.7% and the “body weight reduction vs. control group” value (SD rats; D 14, high (100 mg/kg)) was 23.3%. The “body weight reduction vs. control group” value (SD rats; D 14, low (30 mg/kg)) was 8.5%, the “body weight reduction vs. control group” value (SD rats; D 14, medium (60 mg/kg)) was 14.6% and the “#NEU increase” value (SD rats; females, high (100 mg/kg)) was 687.1%. For the same molecule, the MONO % increase (SD rats; females, high (100 mg/kg)) was 290.3%, the “#MONO increase” value (SD rats; females, low (30 mg/kg)) was 187.7% and the MONO % increase (SD rats; females, low (30 mg/kg)) was 63.6%. For the same molecule, the “#MONO increase” value (SD rats; females, medium (60 mg/kg)) was 237.0%, the “#NEU increase” value (SD rats; females, medium (60 mg/kg)) was 251.8% and the MONO % increase (SD rats; females, medium (60 mg/kg)) was 100.6%. The “ALB reduction vs. control group” value (SD rats; females, ≥100 mg/kg) was “females: at dose ≥100 mg/kg, ALB (↓28.5%)”, the “GLO increase vs. control group” value (SD rats; females, ≥100 mg/kg) was “GLO (: ↑ 61.3%) was significantly increased” and the “#MONO increase vs. control group” value (SD rats; males, high (100 mg/kg)) was 313.0%. For the same molecule, the “#MONO increase vs. control group” value (SD rats; males, low (30 mg/kg)) was “#MONO increased (low: ↑ 154.4%,”, the “#MONO increase vs. control group” value (SD rats; males, medium (60 mg/kg)) was 215.8% and the “#EOS increase vs. control group” value (SD rats; males, ≥100 mg/kg) was 816.7%. For the same molecule, the “MONO % increase vs. control group” value (SD rats; males, ≥100 mg/kg) was 160.3%, the “body weight gain vs. control group” value (SD rats; ≥30 mg/kg, males and females) was “low body weight gain” and the “rebound of body weight after drug withdrawal” value (mouse NASH model; control compound combined with semaglutide) was “neither the control compound combined with semaglutide nor the groups of low/high dose semaglutide alone inhibited the rebound of body weight”.
